What all share (test): DTP human tumour cell line panel, 48 h
In test [1] the test system is SW-620 colon.
The test system of test [2] is HT29 colon.
Test [3] has as its system HCC-2998 colon.
The test system of test [4] is UACC-257 melanoma.
Test [5] concerns HCT-116 colon.
Test [6] deals with SF-268 CNS.
Test [7] deals with MDA-MB-435.
The test system of test [8] is TK-10 renal.
Test [9] deals with BT-549 breast.
Test [10] relates to HOP-92 NSCLC.

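In this assay, cells in 96-well plates receive the compound at five concentrations for 48 hours. Endpoints are linearly interpolated between the surrounding concentrations. TGI denotes the concentration required for complete inhibition of growth.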 A value given as a limit tells only on which side of the number the result lay.

In the case of `Cc1ccc(S(=O)(=O)N/N=C2\CC3CC4CCC2C4C3)cc1` (stereo not given), the TGI in test [1], in test [2], in test [3], in test [4], in test [5] and in test [6] was > 100 µM in each case. For the same compound, the TGI in [7], in [8], in [9] and in [10] was > 100 µM each time.
`COC1=C(C)C(=O)C2=C(C1=O)C1C3CC4=C(C(=O)C(OC)=C(C)C4=O)C(CNC(=O)C(C)O)N3C(C#N)C(C2)N1C` (stereo not given): the TGI (usually the concentration giving total growth inhibition) in test [1] is 0.235 µM; in test [2], < 0.01 µM; in test [3] it was < 0.0272 µM; in test [4], 0.0102 µM; in [5] it was 2.18 µM; in [6], 0.146 µM. For the same compound, the TGI in test [7] was < 0.01 µM; in test [8] it was 0.579 µM; in test [9] it was < 0.01 µM; in test [10], < 0.01 µM.
As for `CC(=O)O[C@H]1C[C@@H](OC(C)=O)[C@@](C)(O)[C@@H]2[C@@H](OC(C)=O)[C@@]3(O)[C@H](/C=C(/CO)[C@H]4O[C@H]4[C@@H](OC(C)=O)[C@@]12C)OC(=O)[C@@H]3C`, the TGI in test [1], in test [2], in test [3], in test [4], in test [5] and in test [6] was > 25 µM throughout. Moreover, the TGI in test [7], in [8], in [9] and in test [10] was > 25 µM each time.
With `O=[N+]([O-])c1cc2ccc(N(CCO)CCO)nc2nc1N(CCO)CCO`, the TGI in [1], in test [2], in [3], in test [4], in test [5] and in test [6] was > 100 µM in each case. Besides, the TGI in test [7], in test [8], in test [9] and in test [10] was > 100 µM each time.
In the case of `COC(=O)CNC(=O)CCC(C)[C@H]1CCC2C3C(C[C@H](OC(C)=O)[C@@]21C)[C@@]1(C)CCC2(C[C@H]1C[C@H]3OC(C)=O)OOC1(CC[C@]3(C)C4C[C@H](OC(C)=O)[C@@]5(C)C(CC[C@@H]5C(C)CCC(=O)NCC(=O)OC)C4[C@H](OC(C)=O)C[C@@H]3C1)OO2` (stereo not given in full), the TGI in [1] is > 50 µM; in test [2] it was 2.37 µM; in test [3], 1.86 µM; in test [4], 2.74 µM; in test [5] it was 9.1 µM; in test [6] it was 16.1 µM. The TGI was > 50 µM in [7], 2.55 µM in test [8], > 50 µM in [9] and 2.64 µM in test [10].
Turning to `O=C(O)c1c2c(cc3c1CC1(Cc4cc5c(cc4C1=O)CCC5)C3)CCC2` (stereo not given), the TGI in test [1], in [2], in test [3], in [4], in [5] and in test [6] was > 100 µM each time. Also, the TGI in test [7], in test [8], in [9] and in [10] was > 100 µM in each case.
Consider `Cc1c(C)c(C)c(-n2c(=O)n(C)c(=O)n2-c2cc(C(C)(C)C)cc(C(C)(C)C)c2O)c(C)c1C`, for which the concentration for total growth inhibition (TGI) amounted to 28.4 µM in [1]; 15.9 µM in test [2]; 24.6 µM in test [3]; 23.9 µM in test [4]; 18.4 µM in [5]; 27.7 µM in test [6]. Further, the TGI in [7] is 27.2 µM; in test [8], 24.5 µM; in test [9], 28.1 µM; in [10], 17.6 µM.
For `O=C1CSC(c2ccc([N+](=O)[O-])cc2)N1c1ccc(-c2ccc(-n3c(-c4ccccc4)nc4ccccc4c3=O)cc2)cc1` (stereo not given), the TGI in test [1], in test [2], in test [3], in test [4], in test [5] and in [6] was > 100 µM each time. The TGI in test [7], in [8], in test [9] and in test [10] was > 100 µM each time.
For `O=c1c2cnccc2cc2c3ccccc3ccn12`, the TGI in [1], in [2], in test [3], in [4], in [5] and in test [6] was > 100 µM each time. For the same compound, the TGI in [7], in test [8], in test [9] and in test [10] was > 100 µM throughout.
`CC1SC2(CCCCC2)N(NC(=O)CSc2nc3ccc(Cl)cc3c(=O)n2-c2ccccc2)C1=O` (stereo not given): the TGI is 75.2 µM in [1]; 33 µM in [2]; 41.8 µM in [3]; 55.5 µM in test [4]; 27.2 µM in [5]; 54.8 µM in test [6]. In addition, the TGI was 54.7 µM in test [7], > 100 µM in test [8], 36.4 µM in [9] and 52.5 µM in test [10].
As to `COc1ccc(NC(C(N)=O)c2cc3cc(Br)ccc3nc2Cl)cc1` (stereo not given), the TGI in test [1], in test [2], in [3], in test [4], in test [5] and in [6] was > 100 µM each time. The TGI is 56.5 µM in test [7], 37.9 µM in [8], > 100 µM in [9] and 99.7 µM in test [10].
Consider `c1ccc(Nc2nn3c(CCCCCCCCc4nnc5sc(Nc6ccccc6)nn45)nnc3s2)cc1`, for which the TGI in [1] was > 100 µM; in [2], 77.5 µM; in test [3], > 100 µM; in [4], > 100 µM; in test [5], > 100 µM; in test [6], > 100 µM. Besides, the TGI in test [7] was 84 µM; in test [8] it was > 100 µM; in test [9], > 100 µM; in test [10], > 100 µM.
Regarding `CCOC(=O)/C=C(\C(=O)OCC)n1cc(Cl)c(=O)n(CC(=O)OCC)c1=O`, the TGI was determined as 4.54 µM in [1]; 38.3 µM in [2]; 37.5 µM in test [3]; 10.2 µM in test [4]; 4.94 µM in test [5]; 32.7 µM in test [6]. Further, the TGI in [7] stood at 35.5 µM; in test [8] it was 3.6 µM; in [9], 35.5 µM; in test [10], 5.28 µM.

For the origin of these results see PubChem BioAssay (NCI).
